Measured values reported in patent publication US11542262B2, “Phosphatidylinositol 3-kinase inhibitors” (NANJING ZHENGXIANG PHARMACEUTICALS CO., LTD., priority 2019, dated 2023).
Read-outs that look alike come from different tables or passages of the source.

Experiments:
[1] = biological target: PI3Kγ (Homo sapiens, UniProt P48736); assay: ADP-Glo luminescent assay, enzymatic activity of PI3K gamma; format: biochemical; settings: ATP 25 μM; read-out: PI3K gamma (nM) inhibitory activity (IC50)
[2] = biological target: T1, PI3K delta (Homo sapiens, UniProt O00329); assay: Raji cell assay: phosphorylation of AKT in anti-IgM stimulated Raji cells (AlphaLISA); format: cell-based; settings: pAKT, read-out: PI3K delta Raji cell (nM) cellular activity (IC50)
T1 construct: endogenous in cells; host or cells: Raji
Method: This study aims to determine the inhibitory effect of compounds on PI3K gamma and PI3K delta in corresponding cell based assays. PI3K gamma activity was reflected by phosphorylation of AKT in C5a stimulated RAW264.7 cells, and PI3K delta activity was reflected by phosphorylation of AKT in anti-IgM stimulated Raji cells. Phosphorylation of AKT in cells was determined using AlphaLISA technology from PerkinElmer.
Raji cell assay: Prepare Passage 11 Raji cell and add 6 μL of 60K cells per well in 384-well plate. Centrifuge at 500 RPM for 30 s and incubate for 2 hours at 37° C., 5% CO2. Add 30 nL compound by Echo and incubate for 30 min at 37° C. Add 2 μL of IgM (4×, 12 μg/mL) per well, centrifuge at 500 RPM for 30 s and incubate for 10 min at 37° C. Add 2 μL of 5× lysis buffer by Multidrop. Shake 10 min on a plate shaker. Add 5 μL acceptor mix provided in the kit. Centrifuge at 1000 RPM for 1 min. Add 5 μL donor mix provided in the kit. Centrifuge at 1000 RPM for 1 min. Then incubate for 2 hours at 25° C., keep the plate in dark. Read AlphaLISA signal on Envision.
Data analysis: Fit the cpd IC50 from non-linear regression equation. Y=Bottom+(Top−Bottom)/(1+10^((Log IC50−X)*Hill Slope)) X: Log of cpd concentration Y: Inhibition

[3] = biological target: T2, PI3K gamma (Mus musculus, UniProt Q9JHG7); assay: Raw264.7 cell assay: phosphorylation of AKT in C5a stimulated RAW264.7 cells (AlphaLISA); format: cell-based; settings: pAKT, read-out: PI3K gamma Raw264.7 cell (nM) cellular activity (IC50)
T2 construct: endogenous in cells; host or cells: RAW264.7
Procedure, shortened: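 Passage-15 RAW264.7 cells were plated and rested 2 h at 37 °C, then given compound for 30 min at 37 °C before C5a stimulation. Lysates went to phospho-AKT AlphaLISA with a 2 h dark incubation at 25 °C. IC50 came from a four-parameter logistic fit of inhibition against log concentration.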

[4] = tested on: MOG35-55 induced EAE; assay: Efficacy on MOG35-55 induced EAE; format: in vivo, C57BL/6 mice; settings: 20 mg/kg and 80 mg/kg BID PO, 14 days from day 10, FIG. 2
[5] = Pharmacokinetics in mice (plasma and brain concentrations); format: in vivo, CD-1 mice; settings: male CD1 mouse, oral gavage 20 mg/kg
Method: The dosing solution was administered to male CD-1 mice via oral gavage (PO) at 20 mg/kg. Blood and brain tissue samples were collected at 0.5, 2 and 8 hours post-dose. The blood samples were then centrifuged for 5 minutes in a centrifuge refrigerated at 4° C. The brain samples after blood removal were homogenized in water.

[6] = tested on: 4T1 cells; assay: Anti-tumor efficacy in 4T1 syngeneic mouse tumor model; format: in vivo; settings: 4T1 in BALB/c mice, oral gavage 100 mg/kg, FIG. 1
Method: BALB/c mice were inoculated subcutaneously at the fourth mammary pad with 4T1 cells for tumor development. On the next day after tumor cell inoculation, the mice were assigned into 2 groups using stratified randomization with 10 mice in each group based upon their body weight and inoculation order. […] The tumor sizes were measured three times per week during the treatment. Tumor volume was calculated by the formula: length×width^2/2.

T2 sequence (Q9JHG7 whole entry): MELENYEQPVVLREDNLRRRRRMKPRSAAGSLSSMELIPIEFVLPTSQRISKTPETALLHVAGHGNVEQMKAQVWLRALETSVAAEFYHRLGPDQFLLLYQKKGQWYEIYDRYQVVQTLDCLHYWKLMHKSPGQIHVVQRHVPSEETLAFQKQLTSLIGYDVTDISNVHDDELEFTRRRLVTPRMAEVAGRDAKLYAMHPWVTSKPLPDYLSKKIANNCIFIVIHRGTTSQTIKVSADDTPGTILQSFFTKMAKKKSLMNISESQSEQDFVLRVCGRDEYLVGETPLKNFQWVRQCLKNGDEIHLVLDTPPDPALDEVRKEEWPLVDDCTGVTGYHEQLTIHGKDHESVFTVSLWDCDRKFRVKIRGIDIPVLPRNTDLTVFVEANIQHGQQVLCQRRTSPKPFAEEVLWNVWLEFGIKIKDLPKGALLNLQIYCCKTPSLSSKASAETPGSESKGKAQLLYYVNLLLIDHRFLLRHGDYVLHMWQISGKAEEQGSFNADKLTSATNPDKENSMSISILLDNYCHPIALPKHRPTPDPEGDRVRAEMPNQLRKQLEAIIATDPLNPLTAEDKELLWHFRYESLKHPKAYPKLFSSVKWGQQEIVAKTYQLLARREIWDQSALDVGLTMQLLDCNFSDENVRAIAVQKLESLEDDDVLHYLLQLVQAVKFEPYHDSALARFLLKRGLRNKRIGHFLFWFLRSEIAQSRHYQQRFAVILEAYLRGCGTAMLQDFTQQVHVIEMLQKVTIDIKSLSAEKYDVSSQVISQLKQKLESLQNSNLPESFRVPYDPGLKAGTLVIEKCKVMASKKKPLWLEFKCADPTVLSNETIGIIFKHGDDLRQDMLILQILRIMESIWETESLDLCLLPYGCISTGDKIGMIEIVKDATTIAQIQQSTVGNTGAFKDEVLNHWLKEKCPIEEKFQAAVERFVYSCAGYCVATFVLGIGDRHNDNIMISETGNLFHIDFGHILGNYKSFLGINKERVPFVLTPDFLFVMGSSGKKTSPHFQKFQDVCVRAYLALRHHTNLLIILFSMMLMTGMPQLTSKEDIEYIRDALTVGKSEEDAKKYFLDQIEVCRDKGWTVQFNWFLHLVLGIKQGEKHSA
T2 sequence (Q5SW28 whole entry partner): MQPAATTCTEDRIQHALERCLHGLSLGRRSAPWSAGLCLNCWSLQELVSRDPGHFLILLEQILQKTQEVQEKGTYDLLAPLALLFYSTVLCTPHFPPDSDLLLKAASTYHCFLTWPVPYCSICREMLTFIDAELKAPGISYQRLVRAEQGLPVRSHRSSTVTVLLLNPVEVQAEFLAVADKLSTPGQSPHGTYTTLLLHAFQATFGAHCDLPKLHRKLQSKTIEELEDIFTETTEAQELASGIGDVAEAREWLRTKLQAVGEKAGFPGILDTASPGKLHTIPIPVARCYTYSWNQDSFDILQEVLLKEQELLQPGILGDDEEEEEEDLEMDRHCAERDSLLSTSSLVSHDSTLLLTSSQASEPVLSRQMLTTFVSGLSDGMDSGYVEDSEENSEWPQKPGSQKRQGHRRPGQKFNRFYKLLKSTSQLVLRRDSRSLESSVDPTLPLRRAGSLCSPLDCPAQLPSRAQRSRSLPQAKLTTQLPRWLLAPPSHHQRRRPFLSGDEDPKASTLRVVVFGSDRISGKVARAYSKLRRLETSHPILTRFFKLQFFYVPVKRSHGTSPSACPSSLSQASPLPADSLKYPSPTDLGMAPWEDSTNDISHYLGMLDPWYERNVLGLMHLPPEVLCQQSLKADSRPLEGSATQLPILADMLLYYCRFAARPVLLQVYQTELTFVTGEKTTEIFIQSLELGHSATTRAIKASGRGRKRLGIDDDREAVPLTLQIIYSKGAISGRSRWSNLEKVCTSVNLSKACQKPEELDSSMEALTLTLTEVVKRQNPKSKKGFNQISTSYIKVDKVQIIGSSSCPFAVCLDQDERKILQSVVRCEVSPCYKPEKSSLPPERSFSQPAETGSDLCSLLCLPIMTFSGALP
T1 sequence (O00329 whole entry): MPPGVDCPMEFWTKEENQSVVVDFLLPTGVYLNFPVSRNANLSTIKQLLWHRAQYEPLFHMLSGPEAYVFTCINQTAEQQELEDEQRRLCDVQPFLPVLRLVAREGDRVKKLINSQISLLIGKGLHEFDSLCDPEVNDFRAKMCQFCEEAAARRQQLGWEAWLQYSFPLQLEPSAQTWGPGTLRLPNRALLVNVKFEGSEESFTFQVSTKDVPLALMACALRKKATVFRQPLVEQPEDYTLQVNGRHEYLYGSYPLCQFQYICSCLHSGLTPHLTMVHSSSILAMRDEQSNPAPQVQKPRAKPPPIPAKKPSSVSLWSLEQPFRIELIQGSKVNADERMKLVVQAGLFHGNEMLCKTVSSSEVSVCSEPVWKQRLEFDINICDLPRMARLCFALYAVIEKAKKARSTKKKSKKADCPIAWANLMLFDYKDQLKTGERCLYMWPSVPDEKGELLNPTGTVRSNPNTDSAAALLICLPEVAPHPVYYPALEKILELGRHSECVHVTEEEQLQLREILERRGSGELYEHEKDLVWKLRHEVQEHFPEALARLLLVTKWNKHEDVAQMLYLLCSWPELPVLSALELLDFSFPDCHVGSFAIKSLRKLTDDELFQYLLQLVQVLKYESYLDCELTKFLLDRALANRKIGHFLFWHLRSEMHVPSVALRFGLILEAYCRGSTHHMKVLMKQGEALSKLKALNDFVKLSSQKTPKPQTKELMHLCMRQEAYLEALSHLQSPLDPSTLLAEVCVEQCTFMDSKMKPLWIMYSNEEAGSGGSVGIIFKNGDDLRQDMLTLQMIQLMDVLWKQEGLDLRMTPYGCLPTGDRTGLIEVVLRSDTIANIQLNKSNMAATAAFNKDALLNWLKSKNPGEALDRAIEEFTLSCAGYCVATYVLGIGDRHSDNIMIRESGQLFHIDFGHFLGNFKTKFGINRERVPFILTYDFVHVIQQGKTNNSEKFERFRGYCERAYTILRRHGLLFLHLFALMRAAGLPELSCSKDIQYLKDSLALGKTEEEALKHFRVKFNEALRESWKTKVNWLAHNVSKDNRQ
T1 sequence (P27986 whole entry partner): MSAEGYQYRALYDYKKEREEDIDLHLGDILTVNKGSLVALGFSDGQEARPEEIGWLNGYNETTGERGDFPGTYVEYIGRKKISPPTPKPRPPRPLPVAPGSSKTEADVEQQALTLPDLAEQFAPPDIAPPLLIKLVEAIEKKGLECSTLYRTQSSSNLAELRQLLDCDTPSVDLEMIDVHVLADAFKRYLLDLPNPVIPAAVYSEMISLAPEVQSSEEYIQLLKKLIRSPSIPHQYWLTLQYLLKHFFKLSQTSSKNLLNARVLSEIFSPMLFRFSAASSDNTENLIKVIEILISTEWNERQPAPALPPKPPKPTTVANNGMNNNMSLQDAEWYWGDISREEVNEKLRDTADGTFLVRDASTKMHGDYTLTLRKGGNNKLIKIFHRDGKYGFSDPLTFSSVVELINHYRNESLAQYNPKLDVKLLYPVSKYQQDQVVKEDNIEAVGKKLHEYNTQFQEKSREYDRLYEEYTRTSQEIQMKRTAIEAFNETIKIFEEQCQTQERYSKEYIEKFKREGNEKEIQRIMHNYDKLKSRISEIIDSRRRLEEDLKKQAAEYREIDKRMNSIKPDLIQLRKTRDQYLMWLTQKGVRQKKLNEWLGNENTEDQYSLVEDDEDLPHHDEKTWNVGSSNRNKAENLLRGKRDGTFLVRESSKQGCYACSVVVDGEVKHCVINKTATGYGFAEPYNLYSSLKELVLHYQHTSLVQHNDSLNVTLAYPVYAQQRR
PI3Kγ, sequence (P48736 whole entry, species assumed): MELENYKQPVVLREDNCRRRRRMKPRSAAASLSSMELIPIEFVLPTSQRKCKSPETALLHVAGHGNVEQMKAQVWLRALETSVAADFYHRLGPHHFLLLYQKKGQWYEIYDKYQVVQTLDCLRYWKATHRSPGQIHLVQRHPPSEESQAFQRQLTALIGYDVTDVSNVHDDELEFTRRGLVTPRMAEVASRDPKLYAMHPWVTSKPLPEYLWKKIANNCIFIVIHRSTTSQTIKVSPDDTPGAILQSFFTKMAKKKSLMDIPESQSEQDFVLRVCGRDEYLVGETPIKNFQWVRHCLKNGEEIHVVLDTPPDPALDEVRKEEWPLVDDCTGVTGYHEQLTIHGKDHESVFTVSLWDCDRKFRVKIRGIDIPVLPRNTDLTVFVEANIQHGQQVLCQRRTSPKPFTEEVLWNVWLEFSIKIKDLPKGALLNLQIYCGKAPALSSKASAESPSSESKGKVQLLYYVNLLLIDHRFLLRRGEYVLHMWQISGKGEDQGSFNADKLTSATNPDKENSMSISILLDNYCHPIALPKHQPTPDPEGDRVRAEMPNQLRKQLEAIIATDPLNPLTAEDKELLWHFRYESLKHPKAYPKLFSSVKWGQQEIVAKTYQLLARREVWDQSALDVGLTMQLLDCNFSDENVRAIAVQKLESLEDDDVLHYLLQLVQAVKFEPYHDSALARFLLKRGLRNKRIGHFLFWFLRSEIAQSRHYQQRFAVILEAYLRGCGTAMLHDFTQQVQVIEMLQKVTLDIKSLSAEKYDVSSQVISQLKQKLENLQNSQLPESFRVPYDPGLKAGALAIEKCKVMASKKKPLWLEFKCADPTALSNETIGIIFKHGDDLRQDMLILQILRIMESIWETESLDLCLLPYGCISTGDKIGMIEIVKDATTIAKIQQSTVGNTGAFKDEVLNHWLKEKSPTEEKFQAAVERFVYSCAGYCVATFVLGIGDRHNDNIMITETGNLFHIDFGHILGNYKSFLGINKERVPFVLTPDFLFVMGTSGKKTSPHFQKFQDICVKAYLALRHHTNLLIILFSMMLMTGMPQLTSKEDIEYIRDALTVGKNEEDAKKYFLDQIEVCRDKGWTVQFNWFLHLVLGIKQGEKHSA

| Compound | IC50 [1] | IC50 [2] | IC50 [3] | clinical disability symptom (EAE clinical score) [4] | concentration at 0.5 h ([5]; CD-1, brain, read-out: Brain) | concentration at 2 h ([5]; CD-1, brain, read-out: Brain) | concentration at 8 h ([5]; CD-1, brain, read-out: Brain) | concentration at 0.5 h ([5]; CD-1, plasma, read-out: Plasma) | concentration at 2 h ([5]; CD-1, plasma, read-out: Plasma) | concentration at 8 h ([5]; CD-1, plasma, read-out: Plasma) | tumor growth (tumor volume) [6] |
| --- | --- | --- | --- | --- | --- | --- | --- | --- | --- | --- | --- |
| CC(=O)Nc1nc(C)c(-c2cc3c(c(NS(C)(=O)=O)n2)C(=O)N([C@@H](C)C2CC2)C3)s1 [Compound 20, (S)-N-(5-(2-(1-cyclopropylethyl)-4-(methylsulfonamido)-3-oxo-2,3-dihydro-1H-pyrrolo[3,4-c]pyridin-6-yl)-4-methylthiazol-2-yl)acetamide] | 1.3 nM | 2160 nM | 4.3 nM |  |  |  |  |  |  |  |  |
| CC(=O)Nc1nc(C)c(-c2cc3c(c(N4CCOCC4)n2)C(=O)N([C@@H](C)C2CC2)C3)s1 [Compound 34, (S)-N-(5-(2-(1-cyclopropylethyl)-4-morpholino-3-oxo-2,3-dihydro-M-pyrrolo[3,4-c]pyridin-6-yl)-4-methylthiazol-2-yl)acetamide] |  | 1960 nM | 1.6 nM | significantly ameliorated the clinical disability symptom | 2490 ng/g | 473 ng/g | 454 ng/g | 2800 ng/mL | 1200 ng/mL | 1370 ng/mL | significantly suppressed tumor growth |
